Assay [1] concerns the target T1, Inhibitor of nuclear factor kappa-B kinase subunit epsilon (Homo sapiens) (UniProt Q14164).
T1 sequence (whole entry): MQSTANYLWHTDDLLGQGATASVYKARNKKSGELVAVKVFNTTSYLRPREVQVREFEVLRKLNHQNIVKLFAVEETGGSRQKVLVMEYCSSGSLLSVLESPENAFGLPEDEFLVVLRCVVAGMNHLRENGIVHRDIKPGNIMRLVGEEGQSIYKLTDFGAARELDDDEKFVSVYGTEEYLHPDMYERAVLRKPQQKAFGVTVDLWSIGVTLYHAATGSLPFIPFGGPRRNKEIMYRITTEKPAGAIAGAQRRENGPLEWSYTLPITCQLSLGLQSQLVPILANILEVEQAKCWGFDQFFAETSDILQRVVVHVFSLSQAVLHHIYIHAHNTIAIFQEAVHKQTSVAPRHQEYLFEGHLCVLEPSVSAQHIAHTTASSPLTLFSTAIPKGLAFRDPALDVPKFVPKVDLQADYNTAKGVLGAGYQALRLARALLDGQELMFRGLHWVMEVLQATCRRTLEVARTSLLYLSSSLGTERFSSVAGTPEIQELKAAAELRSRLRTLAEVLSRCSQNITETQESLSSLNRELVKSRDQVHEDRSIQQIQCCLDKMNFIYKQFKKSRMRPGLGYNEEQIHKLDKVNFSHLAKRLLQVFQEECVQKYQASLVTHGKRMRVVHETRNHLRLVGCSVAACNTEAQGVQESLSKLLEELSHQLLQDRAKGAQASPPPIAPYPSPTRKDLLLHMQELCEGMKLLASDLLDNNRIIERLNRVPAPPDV
The experiment in a line: Inhibition of recombinant full-length human GST-tagged IKKepsilon expressed in baculovirus expression system at 500 nM by Z-LYTE assay relative to control.

For assay [2], the target named is Rho-associated protein kinase 1 (Homo sapiens) (UniProt Q13464). The experiment in a line: Inhibition of recombinant human GST-tagged ROCK1 cytoplasmic domain expressed in baculovirus expression system at 500 nM by Z-LYTE assay relative to control.
Assay [3] deals with Mitogen-activated protein kinase 8 (Homo sapiens) (UniProt P45983). Put plainly: Inhibition of recombinant human full length His-tagged JNK1 expressed in baculovirus expression system at 500 nM by Z-LYTE assay relative to control.
Assay [4] addresses Tyrosine-protein kinase Lck (Homo sapiens) (UniProt P06239). The experiment in a line: Inhibition of recombinant full-length human His-tagged LCK expressed in baculovirus expression system at 500 nM by Z-LYTE assay relative to control.
In assay [5] the target is Mitogen-activated protein kinase 1 (Homo sapiens) (UniProt P28482). Put plainly: Inhibition of recombinant human full length GST-tagged ERK2 expressed in Escherichia coli at 500 nM by Z-LYTE assay relative to control.
Assay [6] concerns the target Serine/threonine-protein kinase pim-2 (Homo sapiens) (UniProt Q9P1W9). The experiment in a line: Inhibition of recombinant full length human GST-tagged PIM2 expressed in baculovirus expression system at 500 nM by Z-LYTE assay relative to control.
Assay [7] deals with T2, Mitogen-activated protein kinase 12 (Homo sapiens) (UniProt P53778).
T2 sequence (whole entry): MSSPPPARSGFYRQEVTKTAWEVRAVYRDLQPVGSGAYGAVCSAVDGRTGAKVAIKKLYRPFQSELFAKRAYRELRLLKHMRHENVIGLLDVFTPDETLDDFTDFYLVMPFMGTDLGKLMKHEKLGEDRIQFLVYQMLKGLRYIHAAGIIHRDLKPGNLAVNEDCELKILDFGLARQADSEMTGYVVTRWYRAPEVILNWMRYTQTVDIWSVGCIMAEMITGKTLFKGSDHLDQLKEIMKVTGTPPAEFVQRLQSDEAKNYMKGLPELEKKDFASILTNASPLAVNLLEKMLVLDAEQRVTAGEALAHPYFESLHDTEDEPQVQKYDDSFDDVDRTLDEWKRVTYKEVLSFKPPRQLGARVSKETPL
The experiment in a line: Inhibition of recombinant human full length His-tagged p38-gamma expressed in baculovirus expression system at 500 nM by Z-LYTE assay relative to control.

Assay [8] concerns the target Tyrosine-protein kinase ABL1 (Homo sapiens) (UniProt P00519). Put plainly: Inhibition of recombinant human full length His-tagged ABL1 expressed in baculovirus expression system at 500 nM by Z-LYTE assay relative to control.
Assay [9] concerns the target Tyrosine-protein kinase JAK2 (Homo sapiens) (UniProt O60674). The experiment in a line: Inhibition of recombinant human GST-tagged JAK2 cytoplasmic domain (809 to […] residues) expressed in baculovirus expression system at 500 nM by Z-LYTE assay relative to control.
Assay [10] addresses T3, Mitogen-activated protein kinase 13 (Homo sapiens) (UniProt O15264).
T3 sequence (whole entry): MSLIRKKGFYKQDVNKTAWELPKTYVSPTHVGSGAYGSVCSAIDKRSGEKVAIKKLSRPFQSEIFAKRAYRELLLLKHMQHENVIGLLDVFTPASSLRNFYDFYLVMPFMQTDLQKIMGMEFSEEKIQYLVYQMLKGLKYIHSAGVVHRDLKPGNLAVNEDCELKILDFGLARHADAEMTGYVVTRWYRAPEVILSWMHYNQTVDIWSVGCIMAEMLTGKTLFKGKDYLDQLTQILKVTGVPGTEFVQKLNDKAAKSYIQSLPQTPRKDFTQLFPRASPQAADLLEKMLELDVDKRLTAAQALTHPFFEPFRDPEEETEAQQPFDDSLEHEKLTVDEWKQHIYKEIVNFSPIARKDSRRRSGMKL
Put plainly: Inhibition of recombinant human full length His-tagged p38-delta expressed in baculovirus expression system at 500 nM by Z-LYTE assay relative to control.

The target of assay [11] is Tyrosine-protein kinase Lyn (Homo sapiens) (UniProt P07948). The experiment in a line: Inhibition of recombinant human full-length N-terminal His-tagged LYN-B expressed in baculovirus expression system at 500 nM by Z-LYTE assay relative to control.
Assay [12] concerns the target Protein kinase C theta type (Homo sapiens) (UniProt Q04759). The experiment in a line: Inhibition of recombinant full length human His-tagged PKCtheta expressed in baculovirus expression system at 500 nM by Z-LYTE assay relative to control.
Assay [13] deals with Rho-associated protein kinase 2 (Homo sapiens) (UniProt O75116). Put plainly: Inhibition of recombinant human N-terminal GST-tagged ROCK2 cytoplasmic domain (1 to 552 residues) expressed in baculovirus expression system at 500 nM by Z-LYTE assay relative to control.
For assay [14], the target named is Platelet-derived growth factor receptor beta (Homo sapiens) (UniProt P09619). The experiment in a line: Inhibition of recombinant human His-tagged PDGFRbeta cytoplasmic domain expressed in baculovirus expression system at 500 nM by Z-LYTE assay relative to control.
The target of assay [15] is Platelet-derived growth factor receptor alpha (Homo sapiens) (UniProt P16234). Put plainly: Inhibition of recombinant human GST-tagged PDGFRalpha cytoplasmic domain (550 to 1089 residues) expressed in baculovirus expression system at 500 nM by Z-LYTE assay relative to control.
In assay [16] the target is Proto-oncogene tyrosine-protein kinase receptor Ret (Homo sapiens) (UniProt P07949). The experiment in a line: Inhibition of recombinant human GST-tagged RET cytoplasmic domain expressed in baculovirus expression system at 500 nM by Z-LYTE assay relative to control.

From ChEMBL document CHEMBL4152312, “Identification of fused pyrimidines as interleukin 17 secretion inhibitors” (Eur J Med Chem, 2018) come the findings set out here.

Tyrosine-protein kinase ABL1 (Homo sapiens), sequence (P00519 whole entry, the tested form may be a part): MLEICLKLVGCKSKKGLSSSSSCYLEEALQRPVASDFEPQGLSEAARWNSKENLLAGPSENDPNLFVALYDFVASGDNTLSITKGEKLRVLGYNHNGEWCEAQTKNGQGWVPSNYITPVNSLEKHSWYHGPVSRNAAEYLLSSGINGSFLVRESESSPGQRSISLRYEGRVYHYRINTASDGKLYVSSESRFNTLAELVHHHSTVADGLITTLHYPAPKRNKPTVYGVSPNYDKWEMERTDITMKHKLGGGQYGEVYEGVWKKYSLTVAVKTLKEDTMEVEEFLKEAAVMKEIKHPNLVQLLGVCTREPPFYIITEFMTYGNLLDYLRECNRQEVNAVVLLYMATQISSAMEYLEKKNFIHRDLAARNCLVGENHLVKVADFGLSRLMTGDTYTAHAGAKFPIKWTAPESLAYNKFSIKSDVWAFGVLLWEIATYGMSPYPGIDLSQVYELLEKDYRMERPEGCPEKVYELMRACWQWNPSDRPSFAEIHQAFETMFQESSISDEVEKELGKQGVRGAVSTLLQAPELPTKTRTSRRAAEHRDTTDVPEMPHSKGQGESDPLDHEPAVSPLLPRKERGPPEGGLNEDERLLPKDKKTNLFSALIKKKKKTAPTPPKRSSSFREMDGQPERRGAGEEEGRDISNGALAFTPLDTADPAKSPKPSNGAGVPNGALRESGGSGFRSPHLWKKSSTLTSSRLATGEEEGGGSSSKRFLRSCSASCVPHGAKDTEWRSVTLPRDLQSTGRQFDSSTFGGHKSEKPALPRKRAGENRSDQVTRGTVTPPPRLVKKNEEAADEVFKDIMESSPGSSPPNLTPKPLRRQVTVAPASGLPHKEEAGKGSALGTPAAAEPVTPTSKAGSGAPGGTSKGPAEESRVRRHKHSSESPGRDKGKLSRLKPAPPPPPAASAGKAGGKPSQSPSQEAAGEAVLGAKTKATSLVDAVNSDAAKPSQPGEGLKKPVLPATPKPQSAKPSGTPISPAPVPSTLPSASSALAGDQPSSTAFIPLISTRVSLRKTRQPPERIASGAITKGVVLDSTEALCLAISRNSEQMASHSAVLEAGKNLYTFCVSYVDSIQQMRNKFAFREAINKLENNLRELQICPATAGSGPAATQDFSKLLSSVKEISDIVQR
Platelet-derived growth factor receptor alpha (Homo sapiens), sequence (P16234 whole entry, the tested form may be a part): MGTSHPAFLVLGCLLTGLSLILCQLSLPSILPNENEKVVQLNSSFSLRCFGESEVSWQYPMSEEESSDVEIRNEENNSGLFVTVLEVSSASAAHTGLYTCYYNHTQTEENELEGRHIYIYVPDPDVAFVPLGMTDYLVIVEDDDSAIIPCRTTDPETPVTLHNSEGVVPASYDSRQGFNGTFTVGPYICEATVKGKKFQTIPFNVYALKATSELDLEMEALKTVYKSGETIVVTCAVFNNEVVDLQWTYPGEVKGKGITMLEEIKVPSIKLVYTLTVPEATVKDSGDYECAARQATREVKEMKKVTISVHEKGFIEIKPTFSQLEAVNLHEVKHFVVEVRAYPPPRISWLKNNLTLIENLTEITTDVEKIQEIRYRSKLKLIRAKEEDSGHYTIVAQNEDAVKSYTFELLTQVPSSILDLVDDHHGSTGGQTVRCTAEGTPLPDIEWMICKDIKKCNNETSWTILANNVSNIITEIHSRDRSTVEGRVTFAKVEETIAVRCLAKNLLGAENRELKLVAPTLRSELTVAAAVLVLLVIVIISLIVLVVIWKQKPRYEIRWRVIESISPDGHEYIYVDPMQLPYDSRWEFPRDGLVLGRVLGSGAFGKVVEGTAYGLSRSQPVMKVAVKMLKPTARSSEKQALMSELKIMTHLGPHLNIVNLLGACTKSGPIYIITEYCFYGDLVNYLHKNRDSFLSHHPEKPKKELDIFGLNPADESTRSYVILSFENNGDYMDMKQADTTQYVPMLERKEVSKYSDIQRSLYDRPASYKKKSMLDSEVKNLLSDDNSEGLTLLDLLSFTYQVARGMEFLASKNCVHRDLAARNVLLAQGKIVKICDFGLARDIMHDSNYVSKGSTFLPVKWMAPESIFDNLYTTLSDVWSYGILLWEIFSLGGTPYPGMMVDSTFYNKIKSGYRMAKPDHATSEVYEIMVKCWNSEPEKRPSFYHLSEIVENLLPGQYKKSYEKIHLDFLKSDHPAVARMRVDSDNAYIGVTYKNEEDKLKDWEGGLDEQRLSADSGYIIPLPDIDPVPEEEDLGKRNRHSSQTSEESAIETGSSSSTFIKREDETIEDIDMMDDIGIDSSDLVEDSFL
Protein kinase C theta type (Homo sapiens), sequence (Q04759 whole entry, looked up, the tested form may be a part): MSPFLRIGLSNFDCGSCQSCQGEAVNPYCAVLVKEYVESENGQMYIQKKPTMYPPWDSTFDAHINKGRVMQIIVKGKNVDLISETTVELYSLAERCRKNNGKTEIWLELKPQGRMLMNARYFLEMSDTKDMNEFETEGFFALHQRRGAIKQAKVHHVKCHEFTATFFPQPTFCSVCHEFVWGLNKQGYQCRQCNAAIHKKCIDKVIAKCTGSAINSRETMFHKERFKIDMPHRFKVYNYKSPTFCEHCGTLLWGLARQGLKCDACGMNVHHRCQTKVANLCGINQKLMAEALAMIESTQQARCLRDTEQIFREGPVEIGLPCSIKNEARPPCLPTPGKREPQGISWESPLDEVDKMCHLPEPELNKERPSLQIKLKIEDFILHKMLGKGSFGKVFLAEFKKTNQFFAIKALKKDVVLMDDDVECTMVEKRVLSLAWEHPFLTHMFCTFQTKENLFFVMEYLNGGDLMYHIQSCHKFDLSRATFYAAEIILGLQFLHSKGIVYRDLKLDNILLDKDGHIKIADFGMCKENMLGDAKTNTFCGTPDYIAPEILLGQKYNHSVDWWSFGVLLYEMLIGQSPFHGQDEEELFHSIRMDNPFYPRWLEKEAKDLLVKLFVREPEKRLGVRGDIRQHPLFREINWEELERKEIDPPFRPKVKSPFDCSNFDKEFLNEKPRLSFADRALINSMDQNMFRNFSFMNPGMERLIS
Tyrosine-protein kinase Lyn (Homo sapiens), sequence (P07948 2-512 limits assumed): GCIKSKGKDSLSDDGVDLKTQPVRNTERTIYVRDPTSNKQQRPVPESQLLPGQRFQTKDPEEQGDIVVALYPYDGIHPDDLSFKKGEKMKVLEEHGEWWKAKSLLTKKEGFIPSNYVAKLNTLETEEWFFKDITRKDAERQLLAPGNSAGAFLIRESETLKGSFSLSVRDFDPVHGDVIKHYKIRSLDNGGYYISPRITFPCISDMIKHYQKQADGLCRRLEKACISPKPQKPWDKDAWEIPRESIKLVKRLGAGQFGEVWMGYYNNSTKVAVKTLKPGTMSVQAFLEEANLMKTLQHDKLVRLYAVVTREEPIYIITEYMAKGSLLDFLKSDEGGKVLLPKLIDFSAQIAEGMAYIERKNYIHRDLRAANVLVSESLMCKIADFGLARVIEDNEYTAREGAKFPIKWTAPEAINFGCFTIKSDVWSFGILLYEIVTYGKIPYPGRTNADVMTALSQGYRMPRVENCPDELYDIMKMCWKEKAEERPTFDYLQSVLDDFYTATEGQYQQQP
Proto-oncogene tyrosine-protein kinase receptor Ret (Homo sapiens), sequence (P07949 whole entry, the tested form may be a part): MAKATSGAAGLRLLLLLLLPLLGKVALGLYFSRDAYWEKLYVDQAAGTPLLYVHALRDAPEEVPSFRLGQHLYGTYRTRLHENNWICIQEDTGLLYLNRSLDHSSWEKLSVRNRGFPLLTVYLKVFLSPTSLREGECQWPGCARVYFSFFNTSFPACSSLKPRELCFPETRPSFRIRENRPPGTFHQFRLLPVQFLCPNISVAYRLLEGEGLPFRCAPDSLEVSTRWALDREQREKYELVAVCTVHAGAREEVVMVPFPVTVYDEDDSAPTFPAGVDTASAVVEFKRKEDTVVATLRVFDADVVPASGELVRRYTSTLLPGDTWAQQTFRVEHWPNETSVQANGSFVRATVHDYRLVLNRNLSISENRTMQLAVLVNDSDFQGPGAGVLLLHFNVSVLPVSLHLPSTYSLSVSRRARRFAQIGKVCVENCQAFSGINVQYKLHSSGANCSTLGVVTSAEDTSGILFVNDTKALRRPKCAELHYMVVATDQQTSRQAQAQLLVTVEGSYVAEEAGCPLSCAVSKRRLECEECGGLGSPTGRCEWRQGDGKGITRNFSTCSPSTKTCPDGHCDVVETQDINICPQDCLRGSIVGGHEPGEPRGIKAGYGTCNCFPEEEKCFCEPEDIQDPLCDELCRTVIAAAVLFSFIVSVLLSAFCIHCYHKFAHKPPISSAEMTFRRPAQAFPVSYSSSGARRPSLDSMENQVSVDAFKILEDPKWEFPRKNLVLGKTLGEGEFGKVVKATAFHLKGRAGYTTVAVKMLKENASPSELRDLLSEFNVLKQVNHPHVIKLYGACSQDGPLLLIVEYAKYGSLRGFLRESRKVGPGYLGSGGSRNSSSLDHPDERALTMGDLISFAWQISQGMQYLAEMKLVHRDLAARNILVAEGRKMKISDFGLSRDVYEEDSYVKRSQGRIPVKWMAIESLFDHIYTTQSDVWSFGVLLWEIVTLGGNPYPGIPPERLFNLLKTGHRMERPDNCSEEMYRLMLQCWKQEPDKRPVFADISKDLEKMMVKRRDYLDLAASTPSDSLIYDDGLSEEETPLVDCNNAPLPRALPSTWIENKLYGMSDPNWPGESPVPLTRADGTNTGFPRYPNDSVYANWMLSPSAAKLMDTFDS
Tyrosine-protein kinase Lck (Homo sapiens), sequence (P06239 2-509 limits assumed): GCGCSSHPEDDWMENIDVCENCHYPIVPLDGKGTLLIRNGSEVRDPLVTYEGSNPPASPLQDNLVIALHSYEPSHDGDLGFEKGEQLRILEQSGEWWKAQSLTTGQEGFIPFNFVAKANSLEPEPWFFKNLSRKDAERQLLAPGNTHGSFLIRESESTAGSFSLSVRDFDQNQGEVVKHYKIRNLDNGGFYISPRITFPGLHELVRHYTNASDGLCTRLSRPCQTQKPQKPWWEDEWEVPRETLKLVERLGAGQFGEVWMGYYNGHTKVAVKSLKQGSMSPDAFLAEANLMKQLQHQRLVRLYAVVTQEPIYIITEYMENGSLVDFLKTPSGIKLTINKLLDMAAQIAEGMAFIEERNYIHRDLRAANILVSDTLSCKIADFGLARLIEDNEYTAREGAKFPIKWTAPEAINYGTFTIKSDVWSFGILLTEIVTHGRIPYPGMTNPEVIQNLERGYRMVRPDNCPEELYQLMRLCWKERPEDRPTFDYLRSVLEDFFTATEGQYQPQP

As for `OC[C@@H](Nc1ncnc2sc(-c3ccc(O)cc3)cc12)c1ccccc1`, the inhibition in assay [1] is -1%; in assay [2], 4%; in assay [3] it was 19%; in [4], 3%; in assay [5], 7%; in assay [6], 3%. Further, the inhibition in assay [7] is 0%; in assay [8] it was 8%; in [9] it was 1%; in assay [10], -2%; in [11] it was 7%; in assay [12] it was -7%. For the same compound, the inhibition in assay [13] is 2%; in assay [14], 1%; in assay [15], 0%; in assay [16], 12%.

Turning to `CN(C)CCn1cc(-c2cccc(O)c2)c2c(N)ncnc21`, the inhibition worked out at 3% in assay [1]; 17% in [2]; 3% in assay [3]; 32% in assay [4]; 6% in assay [5]; 5% in [6]. The inhibition worked out at 10% in assay [7]; 69% in assay [8]; 7% in assay [9]; 1% in assay [10]; 49% in [11]; 8% in [12]. Besides, the inhibition in [13] came to 33%; in assay [14], 5%; in assay [15], 18%; in assay [16], 93%.

With `OCc1ccc(-c2cc3c(N[C@H](CO)c4ccccc4)ncnc3[nH]2)cc1`, the inhibition was 3% in assay [1]; -1% in [2]; -3% in assay [3]; 36% in assay [4]; 9% in assay [5]; 10% in assay [6]. Further, the inhibition is 12% in assay [7]; 84% in [8]; 6% in [9]; 0% in assay [10]; 70% in [11]; -2% in assay [12]. In addition, the inhibition was found to be 6% in [13], 7% in [14], 12% in assay [15] and 41% in assay [16].

As to `CCC(=O)Nc1ccc(-c2c[nH]c3ncnc(N[C@H](C)c4ccccc4)c23)cc1`, the inhibition in [1] is -2%; in assay [2] it was 3%; in assay [3], 4%; in [4], 19%; in [5], 6%; in assay [6], 8%. The inhibition is 10% in [7]; 5% in assay [8]; 13% in [9]; 3% in assay [10]; 27% in assay [11]; 6% in [12]. For the same compound, the inhibition in assay [13] was 6%; in assay [14] it was 5%; in assay [15] it was 8%; in assay [16] it was 23%.

One may read the inhibition as the relative decrease from the control value, in per cent.
